Numbers after ± are expanded uncertainties.
Experiment: molar heat capacity at constant pressure
Details: 101.33 kPa, Crystal, Vacuum adiabatic calorimetry

## Nc1ccc([N+](=O)[O-])cn1 [2-amino-5-nitropyridine]
80 K
  molar heat capacity at constant pressure: 52.33 ± 0.23 J/K/mol
80.24 K
  molar heat capacity at constant pressure: 52.77 ± 0.23 J/K/mol
84.16 K
  molar heat capacity at constant pressure: 54.56 ± 0.24 J/K/mol
85 K
  molar heat capacity at constant pressure: 55.34 ± 0.25 J/K/mol
87.02 K
  molar heat capacity at constant pressure: 56.26 ± 0.25 J/K/mol
89.97 K
  molar heat capacity at constant pressure: 58.05 ± 0.26 J/K/mol
90 K
  molar heat capacity at constant pressure: 58.25 ± 0.3 J/K/mol
93.01 K
  molar heat capacity at constant pressure: 60.06 ± 0.3 J/K/mol
95 K
  molar heat capacity at constant pressure: 61.07 ± 0.31 J/K/mol
96.12 K
  molar heat capacity at constant pressure: 61.79 ± 0.31 J/K/mol
99.15 K
  molar heat capacity at constant pressure: 63.52 ± 0.32 J/K/mol
100 K
  molar heat capacity at constant pressure: 63.81 ± 0.32 J/K/mol
102.11 K
  molar heat capacity at constant pressure: 65.16 ± 0.32 J/K/mol
105 K
  molar heat capacity at constant pressure: 66.48 ± 0.33 J/K/mol
105.16 K
  molar heat capacity at constant pressure: 66.83 ± 0.33 J/K/mol
108.3 K
  molar heat capacity at constant pressure: 68.54 ± 0.33 J/K/mol
110 K
  molar heat capacity at constant pressure: 69.08 ± 0.34 J/K/mol
111.38 K
  molar heat capacity at constant pressure: 69.97 ± 0.34 J/K/mol
114.4 K
  molar heat capacity at constant pressure: 71.41 ± 0.34 J/K/mol
115 K
  molar heat capacity at constant pressure: 71.62 ± 0.34 J/K/mol
117.37 K
  molar heat capacity at constant pressure: 72.83 ± 0.35 J/K/mol
120 K
  molar heat capacity at constant pressure: 74.11 ± 0.35 J/K/mol
120.43 K
  molar heat capacity at constant pressure: 74.39 ± 0.35 J/K/mol
123.58 K
  molar heat capacity at constant pressure: 76.05 ± 0.36 J/K/mol
125 K
  molar heat capacity at constant pressure: 76.55 ± 0.36 J/K/mol
126.69 K
  molar heat capacity at constant pressure: 77.4 ± 0.37 J/K/mol
129.75 K
  molar heat capacity at constant pressure: 78.85 ± 0.37 J/K/mol
130 K
  molar heat capacity at constant pressure: 78.95 ± 0.37 J/K/mol
132.77 K
  molar heat capacity at constant pressure: 80.21 ± 0.38 J/K/mol
135 K
  molar heat capacity at constant pressure: 81.31 ± 0.38 J/K/mol
135.75 K
  molar heat capacity at constant pressure: 81.69 ± 0.38 J/K/mol
138.82 K
  molar heat capacity at constant pressure: 82.97 ± 0.39 J/K/mol
140 K
  molar heat capacity at constant pressure: 83.65 ± 0.39 J/K/mol
141.99 K
  molar heat capacity at constant pressure: 84.37 ± 0.39 J/K/mol
145 K
  molar heat capacity at constant pressure: 85.96 ± 0.4 J/K/mol
145.12 K
  molar heat capacity at constant pressure: 85.83 ± 0.4 J/K/mol
148.21 K
  molar heat capacity at constant pressure: 87.22 ± 0.4 J/K/mol
150 K
  molar heat capacity at constant pressure: 88.25 ± 0.41 J/K/mol
151.26 K
  molar heat capacity at constant pressure: 88.71 ± 0.41 J/K/mol
154.29 K
  molar heat capacity at constant pressure: 90.07 ± 0.41 J/K/mol
155 K
  molar heat capacity at constant pressure: 90.53 ± 0.42 J/K/mol
157.29 K
  molar heat capacity at constant pressure: 91.42 ± 0.42 J/K/mol
160 K
  molar heat capacity at constant pressure: 92.79 ± 0.42 J/K/mol
160.26 K
  molar heat capacity at constant pressure: 92.54 ± 0.42 J/K/mol
163.32 K
  molar heat capacity at constant pressure: 93.8 ± 0.43 J/K/mol
165 K
  molar heat capacity at constant pressure: 95.05 ± 0.43 J/K/mol
166.47 K
  molar heat capacity at constant pressure: 95.36 ± 0.43 J/K/mol
169.59 K
  molar heat capacity at constant pressure: 96.53 ± 0.44 J/K/mol
170 K
  molar heat capacity at constant pressure: 97.31 ± 0.44 J/K/mol
172.69 K
  molar heat capacity at constant pressure: 97.56 ± 0.44 J/K/mol
175 K
  molar heat capacity at constant pressure: 99.56 ± 0.45 J/K/mol
175.76 K
  molar heat capacity at constant pressure: 99.17 ± 0.45 J/K/mol
178.81 K
  molar heat capacity at constant pressure: 100.66 ± 0.46 J/K/mol
180 K
  molar heat capacity at constant pressure: 101.83 ± 0.46 J/K/mol
181.83 K
  molar heat capacity at constant pressure: 101.77 ± 0.46 J/K/mol
184.86 K
  molar heat capacity at constant pressure: 103.74 ± 0.47 J/K/mol
185 K
  molar heat capacity at constant pressure: 104.09 ± 0.47 J/K/mol
188 K
  molar heat capacity at constant pressure: 105.44 ± 0.47 J/K/mol
190 K
  molar heat capacity at constant pressure: 106.38 ± 0.48 J/K/mol
191.24 K
  molar heat capacity at constant pressure: 107.04 ± 0.48 J/K/mol
194.48 K
  molar heat capacity at constant pressure: 108.11 ± 0.48 J/K/mol
195 K
  molar heat capacity at constant pressure: 108.67 ± 0.49 J/K/mol
197.71 K
  molar heat capacity at constant pressure: 110.07 ± 0.49 J/K/mol
200 K
  molar heat capacity at constant pressure: 110.98 ± 0.49 J/K/mol
200.95 K
  molar heat capacity at constant pressure: 111.83 ± 0.5 J/K/mol
204.28 K
  molar heat capacity at constant pressure: 113.75 ± 0.51 J/K/mol
205 K
  molar heat capacity at constant pressure: 113.31 ± 0.51 J/K/mol
207.71 K
  molar heat capacity at constant pressure: 115.82 ± 0.51 J/K/mol
210 K
  molar heat capacity at constant pressure: 115.66 ± 0.51 J/K/mol
211.1 K
  molar heat capacity at constant pressure: 117.36 ± 0.52 J/K/mol
214.45 K
  molar heat capacity at constant pressure: 118.48 ± 0.53 J/K/mol
215 K
  molar heat capacity at constant pressure: 118.02 ± 0.52 J/K/mol
217.75 K
  molar heat capacity at constant pressure: 119.73 ± 0.53 J/K/mol
220 K
  molar heat capacity at constant pressure: 120.42 ± 0.53 J/K/mol
220.98 K
  molar heat capacity at constant pressure: 121.46 ± 0.54 J/K/mol
224.24 K
  molar heat capacity at constant pressure: 123.44 ± 0.54 J/K/mol
225 K
  molar heat capacity at constant pressure: 122.83 ± 0.54 J/K/mol
227.37 K
  molar heat capacity at constant pressure: 125.24 ± 0.55 J/K/mol
230 K
  molar heat capacity at constant pressure: 125.27 ± 0.55 J/K/mol
230.47 K
  molar heat capacity at constant pressure: 126.78 ± 0.56 J/K/mol
233.53 K
  molar heat capacity at constant pressure: 128 ± 0.56 J/K/mol
235 K
  molar heat capacity at constant pressure: 127.73 ± 0.56 J/K/mol
236.7 K
  molar heat capacity at constant pressure: 129.18 ± 0.57 J/K/mol
239.83 K
  molar heat capacity at constant pressure: 130.77 ± 0.57 J/K/mol
240 K
  molar heat capacity at constant pressure: 130.22 ± 0.57 J/K/mol
242.82 K
  molar heat capacity at constant pressure: 132.21 ± 0.58 J/K/mol
245 K
  molar heat capacity at constant pressure: 132.74 ± 0.58 J/K/mol
245.9 K
  molar heat capacity at constant pressure: 133.33 ± 0.58 J/K/mol
249 K
  molar heat capacity at constant pressure: 134.92 ± 0.59 J/K/mol
250 K
  molar heat capacity at constant pressure: 135.28 ± 0.59 J/K/mol
252.08 K
  molar heat capacity at constant pressure: 136.09 ± 0.59 J/K/mol
255 K
  molar heat capacity at constant pressure: 137.85 ± 0.6 J/K/mol
255.25 K
  molar heat capacity at constant pressure: 137.55 ± 0.6 J/K/mol
258.39 K
  molar heat capacity at constant pressure: 138.82 ± 0.6 J/K/mol
260 K
  molar heat capacity at constant pressure: 140.44 ± 0.61 J/K/mol
261.52 K
  molar heat capacity at constant pressure: 140.61 ± 0.61 J/K/mol
264.62 K
  molar heat capacity at constant pressure: 142.67 ± 0.62 J/K/mol
265 K
  molar heat capacity at constant pressure: 143.05 ± 0.62 J/K/mol
267.71 K
  molar heat capacity at constant pressure: 144.57 ± 0.63 J/K/mol
270 K
  molar heat capacity at constant pressure: 145.69 ± 0.63 J/K/mol
270.79 K
  molar heat capacity at constant pressure: 146.14 ± 0.63 J/K/mol
273.84 K
  molar heat capacity at constant pressure: 147.16 ± 0.64 J/K/mol
275 K
  molar heat capacity at constant pressure: 148.34 ± 0.64 J/K/mol
276.89 K
  molar heat capacity at constant pressure: 148.4 ± 0.64 J/K/mol
279.92 K
  molar heat capacity at constant pressure: 149.95 ± 0.65 J/K/mol
280 K
  molar heat capacity at constant pressure: 151.02 ± 0.65 J/K/mol
282.94 K
  molar heat capacity at constant pressure: 151.57 ± 0.66 J/K/mol
285 K
  molar heat capacity at constant pressure: 153.71 ± 0.66 J/K/mol
286.05 K
  molar heat capacity at constant pressure: 152.95 ± 0.66 J/K/mol
289.25 K
  molar heat capacity at constant pressure: 154.4 ± 0.67 J/K/mol
290 K
  molar heat capacity at constant pressure: 156.42 ± 0.68 J/K/mol
292.39 K
  molar heat capacity at constant pressure: 157.06 ± 0.68 J/K/mol
295 K
  molar heat capacity at constant pressure: 159.13 ± 0.69 J/K/mol
295.48 K
  molar heat capacity at constant pressure: 158.97 ± 0.69 J/K/mol
298.15 K
  molar heat capacity at constant pressure: 160.85 ± 0.69 J/K/mol
298.56 K
  molar heat capacity at constant pressure: 161.47 ± 0.69 J/K/mol
300 K
  molar heat capacity at constant pressure: 161.86 ± 0.7 J/K/mol
301.64 K
  molar heat capacity at constant pressure: 163.12 ± 0.7 J/K/mol
304.71 K
  molar heat capacity at constant pressure: 164.66 ± 0.71 J/K/mol
305 K
  molar heat capacity at constant pressure: 164.59 ± 0.71 J/K/mol
307.77 K
  molar heat capacity at constant pressure: 165.74 ± 0.71 J/K/mol
310 K
  molar heat capacity at constant pressure: 167.33 ± 0.72 J/K/mol
310.83 K
  molar heat capacity at constant pressure: 167.2 ± 0.72 J/K/mol
313.87 K
  molar heat capacity at constant pressure: 168.75 ± 0.72 J/K/mol
315 K
  molar heat capacity at constant pressure: 170.06 ± 0.73 J/K/mol
316.9 K
  molar heat capacity at constant pressure: 170.43 ± 0.73 J/K/mol
319.93 K
  molar heat capacity at constant pressure: 172.15 ± 0.74 J/K/mol
320 K
  molar heat capacity at constant pressure: 172.79 ± 0.74 J/K/mol
323.02 K
  molar heat capacity at constant pressure: 174.56 ± 0.75 J/K/mol
325 K
  molar heat capacity at constant pressure: 175.51 ± 0.75 J/K/mol
326.19 K
  molar heat capacity at constant pressure: 175.6 ± 0.75 J/K/mol
329.34 K
  molar heat capacity at constant pressure: 177.96 ± 0.76 J/K/mol
330 K
  molar heat capacity at constant pressure: 178.22 ± 0.76 J/K/mol
332.48 K
  molar heat capacity at constant pressure: 180.37 ± 0.77 J/K/mol
335 K
  molar heat capacity at constant pressure: 180.91 ± 0.77 J/K/mol
335.62 K
  molar heat capacity at constant pressure: 182.54 ± 0.78 J/K/mol
338.77 K
  molar heat capacity at constant pressure: 183.77 ± 0.78 J/K/mol
340 K
  molar heat capacity at constant pressure: 183.58 ± 0.78 J/K/mol
341.9 K
  molar heat capacity at constant pressure: 185.05 ± 0.79 J/K/mol
345 K
  molar heat capacity at constant pressure: 186.22 ± 0.79 J/K/mol
345.02 K
  molar heat capacity at constant pressure: 186.91 ± 0.8 J/K/mol
348.14 K
  molar heat capacity at constant pressure: 188.46 ± 0.8 J/K/mol
350 K
  molar heat capacity at constant pressure: 188.82 ± 0.8 J/K/mol
351.24 K
  molar heat capacity at constant pressure: 190.04 ± 0.81 J/K/mol
354.33 K
  molar heat capacity at constant pressure: 191.86 ± 0.82 J/K/mol
355 K
  molar heat capacity at constant pressure: 191.39 ± 0.81 J/K/mol
357.42 K
  molar heat capacity at constant pressure: 193.4 ± 0.82 J/K/mol
360 K
  molar heat capacity at constant pressure: 193.92 ± 0.82 J/K/mol
360.58 K
  molar heat capacity at constant pressure: 194.97 ± 0.83 J/K/mol
363.8 K
  molar heat capacity at constant pressure: 195.55 ± 0.83 J/K/mol
365 K
  molar heat capacity at constant pressure: 196.39 ± 0.83 J/K/mol
367.02 K
  molar heat capacity at constant pressure: 197.03 ± 0.84 J/K/mol
370 K
  molar heat capacity at constant pressure: 198.81 ± 0.84 J/K/mol
370.23 K
  molar heat capacity at constant pressure: 198.93 ± 0.84 J/K/mol
373.42 K
  molar heat capacity at constant pressure: 200.16 ± 0.85 J/K/mol
375 K
  molar heat capacity at constant pressure: 201.16 ± 0.85 J/K/mol
376.61 K
  molar heat capacity at constant pressure: 202.18 ± 0.86 J/K/mol
379.79 K
  molar heat capacity at constant pressure: 203.08 ± 0.86 J/K/mol
380 K
  molar heat capacity at constant pressure: 203.44 ± 0.86 J/K/mol
382.96 K
  molar heat capacity at constant pressure: 204.62 ± 0.87 J/K/mol
385 K
  molar heat capacity at constant pressure: 205.64 ± 0.87 J/K/mol
386.12 K
  molar heat capacity at constant pressure: 205.85 ± 0.87 J/K/mol
389.27 K
  molar heat capacity at constant pressure: 207.34 ± 0.88 J/K/mol
390 K
  molar heat capacity at constant pressure: 207.76 ± 0.88 J/K/mol
392.45 K
  molar heat capacity at constant pressure: 208.4 ± 0.88 J/K/mol
395 K
  molar heat capacity at constant pressure: 209.78 ± 0.89 J/K/mol
395.48 K
  molar heat capacity at constant pressure: 209.36 ± 0.89 J/K/mol

From the NIST ThermoML archive (doi:10.1016/j.tca.2007.04.006)
